Test system: HIV-1 (NL4-3) viral release in HeLa cells
Test: HIV-1 viral release in HeLa cells transfected with NL4-3 (p24 antigen assay)
Type: cell-based
Details: HeLa cells expressing NL4-3
Experimental: HeLa cells at 50% confluency in P25 flasks were transiently transfected with 2-3 μg of one of the HIV-1 proviral constructs (pNL4-3; pNL4-3/Udel). One-tenth of the culture media was retrieved from each sample and filtered through a 0.22-μm syringe filter at each time point. Cells were collected at the end and subjected to whole-cell lysis by 1% SDS. The viral content in culture media and in cell lysates was determined by Coulter HIV-1 p24 Antigen Assay kit. Virus release was compared to that from the control (co-transfection of pNL4-3 and pCGI). Data are expressed as mean±SEM from 8 independent experiments.
For the inhibitory effects of K2P channel, different quantities (0.02-10 μM) of arachidonic acid (Sigma) were tested in HeLa cell culture at the 24th hour post-transfection of NL4-3, and one-tenth of the media was retrieved and filtered at each time point. Viral release was compared to that of the untreated HeLa cell set at 100% (control).
Referring to FIG. 3, the inhibitory effects of HIV-1 viral release in HeLa cells at the 4th hour after arachidonic acid (AA) supplementation were shown. […] Moreover, 50-60% of the release inhibition could be achieved by AA at 0.5×10^−7˜10^−6 M.

How did the “release inhibition (HIV-1 viral release)” value (4th hour after AA supplementation, AA at 0.5×10^−7˜10^−6 M, untreated HeLa cell set at 100%) turn out when `CCCCC/C=C\C/C=C\C/C=C\C/C=C\CCCC(=O)O` [AA, arachidonic acid] was run?
Its value is 50-60%.

What about the “suppression of viral release” value (submicromolar concentrations, 4th hour after supplementation) of the same compound?
The value was “could suppress viral release”.

From patent US20110054028A1, “SUPPLEMENT FOR REDUCING HIV TR[…] METHOD THEREOF” (priority 2009, published 2011)
